Data reported in patent US9924721B2 (priority 2013, dated 2018).
Like-named read-outs stand apart in the source and are kept apart here. Marks after values point to notes of the source that are not given here.

Columns and labels:
Phytophthora infestans [1] = experiment: microbe, parasite or virus in culture; assay type: cell-based; conditions: for Eff. % (inhibition of fungal growth): 8 days incubation
[2] = pH 2.7
Phytophthora infestans [3] = assay type: in vivo; conditions: tomatoes, spray, evaluated 3 days after inoculation
Pythium ultimum = Pythium ultimum in vitro cell test; assay type: cell-based; conditions: 4 days incubation
Description: Pythium ultimum In Vitro Cell Test
• Solvent: DMSO • Culture medium: 14.6 g anhydrous D-glucose (VWR), 7.1 g Mycological Peptone (Oxoid), 1.4 g granulated Yeast Extract (Merck), QSP liter • Inoculum: mycelial suspension
Fungicides were solubilized in DMSO and the solution used to prepare the required range of concentrations. The final concentration of DMSO used in the assay was ≤1%.
Inoculum was prepared from a pre-culture of P. ultimum grown in liquid medium by homogenization using a blender. The concentration of ground mycelium in the inoculum was estimated and adjusted to the desired optical density (OD).
Fungicides were evaluated for their ability to inhibit mycelium growth in liquid culture assay. The compounds were added in the desired concentrations to culture medium containing the mycelial suspension. After 4 days of incubation, the fungicidal efficacy of compounds was determined by spectrometric measurement of mycelium growth. Inhibition of fungal growth was determined by comparing the absorbance values in wells containing the fungicides with the absorbance in control wells without fungicides.

Plasmopara viticola = experiment: Plasmopara test (grapevines)/preventive; assay type: in vivo; conditions: spray, evaluated 6 days after inoculation
Description: Plasmopara Test (Grapevines)/Preventive
• Solvent: 24.5 parts by weight of acetone • 24.5 parts by weight of dimethylacetamide • Emulsifier: 1 part by weight of alkylaryl polyglycol ether
To produce a suitable preparation of active compound, 1 part by weight of active compound is mixed with the stated amounts of solvent and emulsifier, and the concentrate is diluted with water to the desired concentration.
To test for preventive activity, young plants are sprayed with the preparation of active compound at the stated rate of application. After the spray coating has dried on, the plants are inoculated with an aqueous spore suspension of Plasmopara viticola and then remain for 1 day in an incubation cabinet at approximately 20° C. and a relative atmospheric humidity of 100%. The plant is subsequently placed for 4 days in a greenhouse at approximately 21° C. and a relative atmospheric humidity of approximately 90%. The plants are then misted and placed for 1 day in an incubation cabinet.
The test is evaluated 6 days after the inoculation. 0% means an efficacy which corresponds to that of the untreated control, while an efficacy of 100% means that no disease is observed.

physchem = conditions: pH 2.7
[4] = 0.25 μg/mL of active ingredient

Row | Structure (SMILES) | Eff. % (inhibition of fungal growth) (Phytophthora infestans [1]; [4]) [%] | Log P [2] | Eff. % (preventive efficacy) (Phytophthora infestans [3]; 100 ppm of active ingredient) [%] | Eff. % (inhibition of fungal growth) (Pythium ultimum; 20 μg/mL of active ingredient) [%] | Eff. % (preventive efficacy) (Plasmopara viticola; 100 ppm of active ingredient) [%] | Eff. % (inhibition of fungal growth) (Pythium ultimum; of active ingredient) [%] | Eff. % (inhibition of fungal growth) (Phytophthora infestans [1]; 20 μg/mL of active ingredient) [%] | inhibition at 20 µg/mL (Phytophthora infestans [1]; Phytophthora infestans, 192 h, read-out: Eff. % (inhibition of fungal growth)) [%] | Eff. % (preventive efficacy) (Phytophthora infestans [3]; 1 ppm of active ingredient) [%] | chromatographic logP (physchem) | inhibition at 20 µg/mL (Pythium ultimum; Globisporangium ultimum, 96 h, 20 μg/mL of active ingredient, read-out: Eff. % (inhibition of fungal growth)) [%] | Eff. % (preventive efficacy) (Plasmopara viticola; 1 ppm of active ingredient) [%]
1 | COCCOC(=O)C(C(=O)N1CCC(c2nc(C3=NOC(c4ccccc4OS(C)(=O)=O)C3)cs2)CC1)n1nc(C(F)F)cc1C(F)F (centres unmarked) [Example I-05] | 100 | 3.14^[a] | 96 | 87 | 95 |  |  |  |  |  |  | 
2 | C#CCOc1cccc(F)c1C1CC(c2csc(C3CCN(C(=O)C(C(=O)OCCOC)n4nc(C(F)F)cc4C(F)F)CC3)n2)=NO1 (centres unmarked) [Example I-02] | 100 | 3.37^[a] | 96 |  | 100 | 96 |  |  |  |  |  | 
3 | CCOC(=O)C(C(=O)N1CCC(c2nc(C3=NOC(c4c(F)cccc4OS(C)(=O)=O)C3)cs2)CC1)n1nc(C(F)F)cc1C(F)F (centres unmarked) [Example I-03] |  | 3.29^[a] | 95 | 96 | 98 |  | 99 |  |  |  |  | 
4 | CCOC(=O)C(C(=O)N1CCC(c2nc(C3=NOC(c4c(Cl)cccc4OS(C)(=O)=O)C3)cs2)CC1)n1nc(C(F)F)cc1C(F)F (centres unmarked) [Example I-08] |  | 3.50^[a] | 95 | 87 | 98 |  | 99 |  |  |  |  | 
5 | C#CCOc1cccc(Cl)c1C1CC(c2csc(C3CCN(C(=O)C(C(=O)OCC)n4nc(C(F)F)cc4C(F)F)CC3)n2)=NO1 (centres unmarked) [Example I-16] |  | 3.82^[a] | 98 | 94 | 95 |  | 100 |  |  |  |  | 
6 | C#CCOc1ccccc1C1CC(c2csc(C3CCN(C(=O)CC(=O)OCC)CC3)n2)=NO1 (centres unmarked) [Example I-41, ethyl 3-oxo-3-[4-(4-{5-[2-(prop-2-yn-1-yloxy)phenyl]-4,5-dihydro-1,2-oxazol-3-yl}-1,3-thiazol-2-yl)piperidin-1-yl]propanoate] |  |  |  |  |  |  |  | 100 | 94 | 2.7 | 99 | 91
7 | C#CCOc1cccc(F)c1C1CC(c2csc(C3CCN(C(=O)CC(=O)OCC)CC3)n2)=NO1 (centres unmarked) [Example I-42] |  | 2.58^[a] |  | 100 |  |  | 100 |  | 94 |  |  | 99
